Measurements from US10294202B2, “Pyrrolidinones as herbicides” (FMC Corporation, priority 2013, dated 2019).

Assays:
galium = experiment: Test A postemergence herbicide test; format: in vivo, Galium aparine; conditions: for Galium plant response rating (0 to 100 scale, 0 is no effect, 100 is complete control): 500 g ai/ha
Outline: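 Young potted plants in a loam–sand mix, one- to two-leaf stage and 2–10 cm tall, receive the test chemical postemergence and stay in a greenhouse for approximately 10 days. Injury is then judged by eye against untreated plants, scored 0 (none) to 100 (complete control).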

blackgrass = experiment: Test A postemergence herbicide test; format: in vivo, Alopecurus myosuroides; conditions: for Blackgrass plant response rating (0 to 100 scale, 0 is no effect, 100 is complete control): 500 g ai/ha
Excerpt: (§1) At the same time, plants selected from these crop and weed species and also blackgrass (Alopecurus myosuroides), and galium (catchweed bedstraw, Galium aparine) were planted in pots containing the same blend of loam soil and sand and treated with postemergence applications of test chemicals formulated in the same manner. Plants ranged in height from 2 to 10 cm and were in the one- to two-leaf stage for the postemergence treatment. Treated plants and untreated controls were maintained in a greenhouse for approximately 10 days, after which time all treated plants were compared to untreated controls and visually evaluated for injury. Plant response ratings, summarized in Table A, are based on a 0 to 100 scale where 0 is no effect and 100 is complete control. A dash (-) response means no test result.

corn = experiment: Test A pre-/postemergence herbicide test; format: in vivo, Zea mays; conditions: Postemergence; for Corn plant response rating (0 to 100 scale, 0 is no effect, 100 is complete control): 500 g ai/ha
Outline: (§2)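 Seeds sown in loam soil/sand blend received a preemergence directed soil spray of test chemical in non-phytotoxic solvent with surfactant; postemergence plants (2–10 cm, one- to two-leaf stage) were sprayed with the same formulation. After about 10 days in greenhouse, injury was rated visually versus untreated controls, 0 (no effect) to 100 (complete control).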

wheat = experiment: Test A pre-/postemergence herbicide test; format: in vivo, Triticum aestivum; conditions: Postemergence; for Wheat plant response rating (0 to 100 scale, 0 is no effect, 100 is complete control): 500 g ai/ha
Outline: as §2

giant foxtail = experiment: Test A pre-/postemergence herbicide test; format: in vivo, Setaria faberii
Outline: as §2

kochia = experiment: Test A pre-/postemergence herbicide test; format: in vivo, Kochia scoparia
Excerpt: as §1, with “Seeds of plant species selected from bamyardgrass (Echinochloa crus-galli), kochia (Kochia scoparia), ragweed (common ragweed, Ambrosia elatior), ryegrass, Italian (Italian ryegrass, Lolium multiflorum), crabgrass, large (large crabgrass Digitaria sanguinalis), giant foxtail (Setaria faberii), morningglory (Ipomoea spp.), pigweed (Amaranthus retroflexus), velvetleaf (Abutilon theophrasti), wheat (Triticum aestivum), and corn (Zea mays) were planted into a blend of loam soil and sand and treated preemergence with a directed soil spray using test chemicals formulated in a non-phytotoxic solvent mixture which included a surfactant. At” for “At”

barnyardgrass = experiment: Test A pre-/postemergence herbicide test; format: in vivo, Echinochloa crus-galli
Outline: as §2

ryegrass, Italian = experiment: Test A pre-/postemergence herbicide test; format: in vivo, Lolium multiflorum
Excerpt: as §1, with “Seeds of plant species selected from bamyardgrass (Echinochloa crus-galli), kochia (Kochia scoparia), ragweed (common ragweed, Ambrosia elatior), ryegrass, Italian (Italian ryegrass, Lolium multiflorum), crabgrass, large (large crabgrass Digitaria sanguinalis), giant foxtail (Setaria faberii), morningglory (Ipomoea spp.), pigweed (Amaranthus retroflexus), velvetleaf (Abutilon theophrasti), wheat (Triticum aestivum), and corn (Zea mays) were planted into a blend of loam soil and sand and treated preemergence with a directed soil spray using test chemicals formulated in a non-phytotoxic solvent mixture which included a surfactant. At” for “At”

pigweed = experiment: Test A pre-/postemergence herbicide test; format: in vivo, Amaranthus retroflexus
Outline: as §2

ragweed = experiment: Test A pre-/postemergence herbicide test; format: in vivo, Ambrosia elatior
Outline: as §2

[1] = 125 g ai/ha, 0 to 100 scale, 0 is no effect, 100 is complete control
[2] = 125 g ai/ha, visual rating, 0 to 100 scale, 0 no effect, 100 complete control, approximately 10 days, preemergence
[3] = Postemergence, 125 g ai/ha, 0 to 100 scale, 0 is no effect, 100 is complete control
[4] = preemergence, 500 g ai/ha, 0 to 100 scale, 0 is no effect and 100 is complete control
[5] = 1000 g ai/ha, 0 to 100 scale (0 no effect, 100 complete control)
[6] = Postemergence, 1000 g ai/ha, 0 to 100 scale (0 no effect, 100 complete control)
[7] = preemergence, 1000 g ai/ha, 0 to 100 scale

Compound | Plant response rating, Galium (galium; [1]) | Galium plant response rating (0 to 100 scale, 0 is no effect, 100 is complete control) (galium) | Plant response rating, Blackgrass (blackgrass; [1]) | Blackgrass plant response rating (0 to 100 scale, 0 is no effect, 100 is complete control) (blackgrass) | Plant response rating, Corn (corn; [1]) | Corn plant response rating (0 to 100 scale, 0 is no effect, 100 is complete control) (corn) | Plant response rating, Wheat (wheat; [1]) | Wheat plant response rating (0 to 100 scale, 0 is no effect, 100 is complete control) (wheat) | Plant response rating, Foxtail, Giant (giant foxtail; [2]) | Plant response rating, Foxtail, Giant (giant foxtail; [3]) | Foxtail, Giant plant response rating (0 to 100 scale, 0 is no effect, 100 is complete control) (giant foxtail; Postemergence, 500 g ai/ha) | Plant response rating, Kochia (kochia; [2]) | Plant response rating, Kochia (kochia; [3]) | Kochia plant response rating (0 to 100 scale, 0 is no effect, 100 is complete control) (kochia; Postemergence, 500 g ai/ha) | Plant response rating, Kochia (kochia; [4]) | Plant response rating, Barnyardgrass (barnyardgrass; [2]) | Plant response rating, Barnyardgrass (barnyardgrass; [3]) | Barnyardgrass plant response rating (0 to 100 scale, 0 is no effect, 100 is complete control) (barnyardgrass; Postemergence, 500 g ai/ha) | Plant response rating, Ryegrass, Italian (ryegrass, Italian; [2]) | Plant response rating, Ryegrass, Italian (ryegrass, Italian; [3]) | other results
O=C1NCC(c2cc(F)cc(F)c2)C1C(=O)Nc1ccc(F)cc1F (racemic) [Compound 156] | 20 | 30 | 0 | 20 | 20 | 30 | 0 | 40 | 90 | 80 | 80 | 20 | 0 | 20 | 40 | 90 | 80 | 80 | 0 | 20 | Plant response rating, Foxtail, Giant (giant foxtail; preemergence, 500 g ai/ha, 0 to 100 scale): 90; Plant response rating, Barnyardgrass (barnyardgrass; preemergence, 500 g ai/ha, 0 to 100 scale (0 no effect, 100 complete control)): 90; Ryegrass, Italian plant response rating (0 to 100 scale, 0 is no effect, 100 is complete control) (ryegrass, Italian; Postemergence, 500 g ai/ha): 30; Plant response rating, Ryegrass, Italian (ryegrass, Italian; [4]): 30; Plant response rating, Pigweed (pigweed; [2]): 0; Plant response rating, Pigweed (pigweed; [3]): 0; Pigweed plant response rating (0 to 100 scale, 0 is no effect, 100 is complete control) (pigweed; Postemergence, 500 g ai/ha): 20; Plant response rating, Pigweed (pigweed; [4]): 0; Plant response rating, Ragweed (ragweed; [2]): 0; Plant response rating, Ragweed (ragweed; [3]): 0; Ragweed plant response rating (0 to 100 scale, 0 is no effect, 100 is complete control) (ragweed; Postemergence, 500 g ai/ha): 30; Plant response rating, Ragweed (ragweed; [4]): 0
Cc1cccc(NC(=O)C2C(=O)NCC2c2cccc(C(F)(F)F)c2)c1F (racemic) [Compound 184] | 0 | 20 | 0 | 20 | 0 | 20 | 0 | 40 | 90 | 70 | 80 | 0 | 0 | 0 | 20 | 70 | 70 | 80 | 0 | 0 | Plant response rating, Foxtail, Giant (giant foxtail; [4]): 90; Plant response rating, Barnyardgrass (barnyardgrass; [4]): 90; Ryegrass, Italian plant response rating (0 to 100 scale, 0 is no effect, 100 is complete control) (ryegrass, Italian; Postemergence, 500 g ai/ha): 20; Plant response rating, Ryegrass, Italian (ryegrass, Italian; [4]): 0; Plant response rating, Pigweed (pigweed; [2]): 0; Plant response rating, Pigweed (pigweed; [3]): 0; Pigweed plant response rating (0 to 100 scale, 0 is no effect, 100 is complete control) (pigweed; Postemergence, 500 g ai/ha): 0; Plant response rating, Pigweed (pigweed; [4]): 0; Plant response rating, Ragweed (ragweed; [2]): 0; Plant response rating, Ragweed (ragweed; [3]): 0; Ragweed plant response rating (0 to 100 scale, 0 is no effect, 100 is complete control) (ragweed; Postemergence, 500 g ai/ha): 0; Plant response rating, Ragweed (ragweed; [4]): 0
Cc1ccc(NC(=O)C2C(=O)NCC2c2cccc(C(F)(F)F)c2)cc1C(F)(F)F (racemic) [Compound 186] | 0 | 0 | 0 | 0 | 0 | 0 | 0 | 0 | 0 | 0 | 0 | 0 | 0 | 0 | 0 | 0 | 0 | 0 | 0 | 0 | Plant response rating, Foxtail, Giant (giant foxtail; [4]): 0; Plant response rating, Barnyardgrass (barnyardgrass; [4]): 0; Ryegrass, Italian plant response rating (0 to 100 scale, 0 is no effect, 100 is complete control) (ryegrass, Italian; Postemergence, 500 g ai/ha): 0; Plant response rating, Ryegrass, Italian (ryegrass, Italian; [4]): 0; Plant response rating, Pigweed (pigweed; [2]): 0; Plant response rating, Pigweed (pigweed; [3]): 0; Pigweed plant response rating (0 to 100 scale, 0 is no effect, 100 is complete control) (pigweed; Postemergence, 500 g ai/ha): 0; Plant response rating, Pigweed (pigweed; [4]): 0; Plant response rating, Ragweed (ragweed; [2]): 0; Plant response rating, Ragweed (ragweed; [3]): 0; Ragweed plant response rating (0 to 100 scale, 0 is no effect, 100 is complete control) (ragweed; Postemergence, 500 g ai/ha): 0; Plant response rating, Ragweed (ragweed; [4]): 0
COc1ccc(NC(=O)C2C(=O)NCC2c2cccc(C(F)(F)F)c2)cc1F (racemic) [Compound 188] | 0 | 0 | 0 | 0 | 0 | 0 | 0 | 0 | 0 | 0 | 0 | 0 | 0 | 0 | 0 | 0 | 0 | 0 | 0 | 0 | Plant response rating, Foxtail, Giant (giant foxtail; [4]): 0; Plant response rating, Barnyardgrass (barnyardgrass; [4]): 0; Ryegrass, Italian plant response rating (0 to 100 scale, 0 is no effect, 100 is complete control) (ryegrass, Italian; Postemergence, 500 g ai/ha): 0; Plant response rating, Ryegrass, Italian (ryegrass, Italian; [4]): 0; Plant response rating, Pigweed (pigweed; [2]): 0; Plant response rating, Pigweed (pigweed; [3]): 0; Pigweed plant response rating (0 to 100 scale, 0 is no effect, 100 is complete control) (pigweed; Postemergence, 500 g ai/ha): 0; Plant response rating, Pigweed (pigweed; [4]): 0; Plant response rating, Ragweed (ragweed; [2]): 0; Plant response rating, Ragweed (ragweed; [3]): 0; Ragweed plant response rating (0 to 100 scale, 0 is no effect, 100 is complete control) (ragweed; Postemergence, 500 g ai/ha): 0; Plant response rating, Ragweed (ragweed; [4]): 0
O=C1NCC(c2cccc(-c3ccccc3C(F)(F)F)c2)C1C(=O)Nc1ccccc1C(F)(F)F (stereo not drawn) [Compound 237] |  |  |  |  |  |  |  |  |  |  |  |  |  |  |  |  |  |  |  |  | Plant response rating, Galium (galium; [5]): 0; Plant response rating, Blackgrass (blackgrass; [5]): 0; Plant response rating, Corn (corn; [5]): 0; Plant response rating, Wheat (wheat; [5]): 0; Plant response rating, Foxtail, Giant (giant foxtail; [6]): 0; Plant response rating, Foxtail, Giant (giant foxtail; [7]): 80; Plant response rating, Kochia (kochia; [6]): 0; Plant response rating, Kochia (kochia; [7]): 0; Plant response rating, Barnyardgrass (barnyardgrass; [6]): 20; Plant response rating, Barnyardgrass (barnyardgrass; preemergence, 1000 g ai/ha, 0 to 100 scale (0 no effect, 100 complete control)): 60; Plant response rating, Ryegrass, Italian (ryegrass, Italian; [6]): 0; Plant response rating, Ryegrass, Italian (ryegrass, Italian; [7]): 0; Plant response rating, Pigweed (pigweed; [6]): 0; Plant response rating, Pigweed (pigweed; [7]): 0; Plant response rating, Ragweed (ragweed; [6]): 0; Plant response rating, Ragweed (ragweed; [7]): 0
